# Measurements reported in patent US6900308B2, “α-modified nucleoside triphosphates” (ISIS Pharmaceuticals, Inc., priority 2001, dated 2005).
# What was measured:
# [1] = target: T1, HCV NS5B RNA polymerase (Hepatitis C virus genotype 1b, UniProt P26663); assay: Inhibition of HCV NS5B RNA-dependent RNA polymerase on heteromeric RNA template t500 (filter-binding, radiolabelled NTP); assay type: biochemical; settings: test concentration not given (compounds tested up to 100 μM); for % I (ATP), Percent Inhibition of HCV NS5B RNA polymerase: [alpha-32P]-ATP label; for % I (GTP), Percent Inhibition of HCV NS5B RNA polymerase: [alpha-32P]-GTP label
# T1 construct: purified hepatitis C NS5B (form with 21 amino acids C-terminally truncated)
# Protocol: This assay can be used to measure the ability of the nucleoside triphosphates of the present invention to inhibit the enzymatic activity of the RNA-dependent RNA polymerase (NS5B) of the hepatitis C virus (HCV) on a heteromeric RNA template.
# The following describes assay buffer conditions: (50 μl-total/reaction) • 20 mM Tris, pH 7.5 • 50 μM EDTA • 5 mM DTT • 2 mM MgCl2 • 80 mM KCl • 0.4 U/μl RNAsin (Promega, stock is 40 units/μl) • 0.75 μg t500 (a 500 nt RNA made using T7 runoff transcription with a sequence from the NS2/3 region of the hepatitis C genome) • 1.6 μg purified hepatitis C NS5B (form with 21 amino acids C-terminally truncated) • 1 μM A, C, U, GTP (nucleoside triphosphate mix) • [alpha-^32P]-GTP or [alpha-^32P]-ATP The compounds were tested at various concentrations up to 100 μM final concentration.
# An appropriate volume of reaction buffer was made including enzyme and template t500. Nucleoside derivatives of the present invention were pipetted into the wells of a 96-well plate. A mixture of nucleoside triphosphates (NTP's), including the radiolabeled GTP, was made and pipetted into the wells of a 96-well plate. The reaction was initiated by addition of the enzyme-template reaction solution and allowed to proceed at room temperature for 1-2 hours.
# The reaction was quenched by addition of 20 μl 0.5 M EDTA, pH 8.0. Blank reactions in which the quench solution is added to the NTPs prior to the addition of the reaction buffer were included.
# 50 μL of the quenched reaction was spotted onto DE81 filter disks (Whatman) and allowed to dry for 30 minutes. The filters were washed with 0.3 M ammonium formate, pH 8 (150 mL/wash until the cpm in 1 mL wash is less than 100, usually 6 washes). The filters were counted in 5-mL scintillation fluid in a scintillation counter.
# The percentage of inhibition is calculated according to the following equation: %Inhibition={1−(cpm in test reaction−cpm in blank)/(cpm in control reaction−cpm in blank)}×100.
# [2] = target: wild-type HIV RT (Human immunodeficiency virus type 1 group M subtype B, UniProt P04585); assay: Inhibition of HIV-RT activity (RNA template t500 annealed to DNA primer pD500, [alpha-33P]-dATP incorporation); assay type: biochemical; settings: for inhibition at 10 µM: read-out: % I (10 μM), Inhibition of HIV-RT; for inhibition at 100 µM: read-out: % I (100 μM), Inhibition of HIV-RT
# T1 sequence (P26663 2420-2989): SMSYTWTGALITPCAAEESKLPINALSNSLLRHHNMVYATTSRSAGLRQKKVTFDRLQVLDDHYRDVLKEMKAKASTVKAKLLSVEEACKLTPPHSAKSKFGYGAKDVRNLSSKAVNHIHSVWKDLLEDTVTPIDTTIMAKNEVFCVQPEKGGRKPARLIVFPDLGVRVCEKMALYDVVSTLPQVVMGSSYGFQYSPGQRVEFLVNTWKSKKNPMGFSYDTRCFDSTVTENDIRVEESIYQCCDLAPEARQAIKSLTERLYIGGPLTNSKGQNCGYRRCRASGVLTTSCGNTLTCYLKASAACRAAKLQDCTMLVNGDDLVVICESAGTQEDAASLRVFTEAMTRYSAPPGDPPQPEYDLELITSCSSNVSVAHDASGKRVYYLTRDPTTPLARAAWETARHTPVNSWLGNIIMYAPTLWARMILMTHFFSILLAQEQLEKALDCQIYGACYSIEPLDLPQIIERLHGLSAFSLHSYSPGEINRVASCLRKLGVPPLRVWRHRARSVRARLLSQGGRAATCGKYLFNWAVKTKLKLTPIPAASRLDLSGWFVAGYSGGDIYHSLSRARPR
Molecule,"% I (ATP), Percent Inhibition of HCV NS5B RNA polymerase [1]","% I (GTP), Percent Inhibition of HCV NS5B RNA polymerase [1]",inhibition at 10 µM [2],inhibition at 100 µM [2]
2′-Deoxythymidine-5′-(α-P-(amino triphosphate) [compound 17 of Table 2],0.1%,−6%,–,–
2′-O-Methyl guanosine-5′-(α-P-(N-butyl)triphosphate) [compound 23 of Table 2],90%,91%,–,–
COc1cc(CN)cc(OC)c1 [compound 10],–,–,-6.41%,-11.9%
NCC1COCCOCCOCCOCCO1 (stereo not shown) [compound 11],–,–,5.37%,-17.2%
NCc1ccc(-c2ccccc2)cc1 [compound 14],–,–,-2.25%,-12.9%
